The values that follow come from PubChem BioAssay (NCI).

Some test systems named below: OVCAR-4 ovarian; SF-539 CNS; SK-MEL-2 melanoma; OVCAR-8 ovarian; UO-31 renal; NCI-H522 lung; BT-549 breast; CCRF-CEM leukemia; SF-295 CNS; ACHN renal.
What all share (assay): DTP human tumour cell line panel, 48 h

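Dose response: 5 concentrations. Exposure: 48 h. Format: 96-well plates. Endpoint: linear interpolation; highest concentration if not reached. TGI is the concentration that stops growth completely.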 Some results are limits rather than exact numbers.

`COC(=O)CCc1cc(O)c2c(c1)C(C(=O)OC)C(c1ccc(O)c(O)c1)O2` (stereo not given): the TGI in the test on OVCAR-4 ovarian was greater than 100 µM; with SF-539 CNS, 32.9 µM; in the test on SK-MEL-2 melanoma it was greater than 100 µM; with OVCAR-8 ovarian, 65.1 µM; in the test with UO-31 renal, greater than 100 µM; with NCI-H522 lung, greater than 100 µM. In addition, the TGI was greater than 100 µM with BT-549 breast, greater than 48.7 µM with CCRF-CEM leukemia, 97 µM in the test on SF-295 CNS and greater than 100 µM in the test with ACHN renal.

On to `Cc1cc(C)n(C2OC(CO)C(O)C(O)C2O)c(=S)c1C#N` (stereo not given), for which the TGI in the test on OVCAR-4 ovarian, in the test with SF-539 CNS, with SK-MEL-2 melanoma, with OVCAR-8 ovarian, in the test with UO-31 renal and with NCI-H522 lung was greater than 100 µM in each case. Further, the TGI in the test on BT-549 breast, in the test on CCRF-CEM leukemia, in the test with SF-295 CNS and in the test on ACHN renal was greater than 100 µM each time.

Consider `COc1ccc(C2=Nn3c(nnc(Cc4ccc(Cl)cc4)c3=O)SC2)cc1`, for which the TGI in the test on OVCAR-4 ovarian, in the test with SF-539 CNS, in the test with SK-MEL-2 melanoma, in the test on OVCAR-8 ovarian, in the test on UO-31 renal and with NCI-H522 lung was greater than 100 µM throughout. Besides, the TGI with BT-549 breast, with CCRF-CEM leukemia, in the test with SF-295 CNS and with ACHN renal was greater than 100 µM throughout.

`CCOP(=O)(CN1CCNCCNCC1)OCC`: the TGI in the test on OVCAR-4 ovarian, with SF-539 CNS, in the test with SK-MEL-2 melanoma, in the test on OVCAR-8 ovarian, with UO-31 renal and in the test with NCI-H522 lung was greater than 100 µM each time. Further, the TGI in the test on BT-549 breast, with CCRF-CEM leukemia, in the test on SF-295 CNS and in the test on ACHN renal was greater than 100 µM in each case.

For the compound `CC(C)(C)C1=CC(=C(c2ccc(-c3c4nc(c(-c5ccc(C(=C6C=C(C(C)(C)C)C(=O)C(C(C)(C)C)=C6)c6cc(C(C)(C)C)c(O)c(C(C)(C)C)c6)cc5)c5ccc([nH]5)c(-c5ccc(C(=C6C=C(C(C)(C)C)C(=O)C(C(C)(C)C)=C6)c6cc(C(C)(C)C)c(O)c(C(C)(C)C)c6)cc5)c5nc(c(-c6ccc(C(=C7C=C(C(C)(C)C)C(=O)C(C(C)(C)C)=C7)c7cc(C(C)(C)C)c(O)c(C(C)(C)C)c7)cc6)c6ccc3[nH]6)C=C5)C=C4)cc2)c2cc(C(C)(C)C)c(O)c(C(C)(C)C)c2)C=C(C(C)(C)C)C1=O`, the TGI in the test with OVCAR-4 ovarian, in the test on SF-539 CNS, with SK-MEL-2 melanoma, in the test with OVCAR-8 ovarian, in the test with UO-31 renal and in the test on NCI-H522 lung was greater than 100 µM in each case. Also, the TGI in the test with BT-549 breast, with CCRF-CEM leukemia, in the test on SF-295 CNS and in the test on ACHN renal was greater than 100 µM each time.

Consider `CC1=CC(=O)N(n2c(Cc3ccccc3)n[nH]c2=O)C1=O`, for which the TGI in the test on OVCAR-4 ovarian, with SF-539 CNS, with SK-MEL-2 melanoma, with OVCAR-8 ovarian, in the test with UO-31 renal and in the test on NCI-H522 lung was greater than 100 µM in each case. For the same compound, the TGI in the test with BT-549 breast was greater than 100 µM; in the test with CCRF-CEM leukemia it was 62.7 µM; in the test on SF-295 CNS it was greater than 100 µM; in the test with ACHN renal, greater than 100 µM.

As for `Cc1ccc2c(c1)C1(C)OC(C=CC1=O)O2` (stereo not given), the TGI came to 2.29 µM in the test with OVCAR-4 ovarian; 1.27 µM with SF-539 CNS; 5.85 µM in the test with SK-MEL-2 melanoma; 0.803 µM in the test on OVCAR-8 ovarian; 2.36 µM in the test with UO-31 renal; 0.239 µM with NCI-H522 lung. The TGI in the test on BT-549 breast came to 1.57 µM; in the test on CCRF-CEM leukemia it was 0.569 µM; in the test on SF-295 CNS it was 11.9 µM; in the test with ACHN renal it was 1.73 µM.

Take `CC(C)(C)c1ccc(-c2nc3ccc(Cl)cc3c(=O)o2)cc1`: the TGI in the test with OVCAR-4 ovarian was found to be 63.1 µM; in the test on SF-539 CNS, 35.8 µM; in the test on SK-MEL-2 melanoma it was 44.2 µM; in the test with OVCAR-8 ovarian it was 49.3 µM; in the test with UO-31 renal it was 77.6 µM; with NCI-H522 lung, 29.7 µM. For the same compound, the TGI in the test with BT-549 breast came out at 63.6 µM; in the test with CCRF-CEM leukemia it was 34.2 µM; in the test with SF-295 CNS it was 58.1 µM; in the test with ACHN renal, 61.7 µM.

As to `CNc1nc2n(CCO)c(-c3ccccc3)c(-c3ccccc3)nc-2c(=O)n1`, the total growth inhibition concentration (TGI) with OVCAR-4 ovarian, in the test with SF-539 CNS, in the test on SK-MEL-2 melanoma, with OVCAR-8 ovarian, in the test with UO-31 renal and in the test on NCI-H522 lung was greater than 50 µM in each case. The concentration for total growth inhibition (TGI) in the test on BT-549 breast, in the test on CCRF-CEM leukemia, with SF-295 CNS and in the test with ACHN renal was greater than 50 µM in each case.

For orientation: TGI means the concentration giving total growth inhibition. Lower therefore signals greater sensitivity of the cells.
